The term MIC denotes the least concentration at which growth counts as inhibited. A lower MIC goes with greater potency. In general, HC50 refers to the concentration giving 50% haemolysis. For orientation: IC50 means the concentration at which inhibition is half-maximal. High values mean weaker potency, low ones greater potency.

The values that follow come from publication PMC10687119, “Quaternary Ammonium Salts of Cationic Lipopeptides with Lysine Residues — Synthesis, Antimicrobial, Hemolytic and Cytotoxic Activities” (Probiotics and Antimicrobial Proteins, 2023).

For data set [1], the system named is P. aeruginosa ATCC 9027. The class given is cell-based, Pseudomonas aeruginosa. Conditions: ATCC 9027, 18 h. As for the experimental part: (§1) The Acinetobacter baumannii ATCC BAA-1605, Enterococcus faecium ATCC 700221, Klebsiella aerogenes ATCC 13048, Klebsiella pneumoniae ATCC 700603, Pseudomonas aeruginosa ATCC 9027, Staphylococcus aureus ATCC 33591, Candida glabrata ATCC 15126 strains were acquired from the American Type Culture Collection (ATCC, Manassas, USA). All the strains were stored at −80 °C in Roti-Store cryo vials (Carl Roth GmbH, Germany) and before the tests were transferred into fresh Mueller–Hinton broth (MHB, Becton Dickinson, Poland) for bacteria or RPMI-1640 (Sigma-Aldrich, Germany) for fungi and incubated for 24 h at 37 °C. Then, the cultures were cultured on the Mueller–Hinton agar (BioMaxima, Poland) or Sabouraud dextrose agar (SDA, BioMaxima) plates, respectively, and incubated as just mentioned. For microbiological assays, a minimum of three to five well-isolated colonies of the same morphological type were carefully picked from the agar cultures. These colonies were transferred with sterile loop into fresh microbiological medium and incubated with shaking (100 rpm) at 37 °C until they reached logarithmic phase of growth. Cell densities for all assays were adjusted through spectrophotometric measurements (Multiskan GO Microplate Spectrophotometer, Thermo Fisher Scientific, Finland) at 600 and 530 nm for bacteria and fungi, respectively.
(§2) The MICs were determined by broth microdilution method according to the Clinical and Laboratory Standard Institute guidelines. For this purpose, initial inoculums of bacteria (5 × 10^5 CFU/mL) in MHB and yeasts (2 × 10^3 CFU/mL) in RPMI-1640 with 2% D-glucose were exposed to the ranging concentration of lipopeptides (1–512 μg/mL) and incubated at 37 °C for 18 h and 24 h, respectively. The experiments were conducted on 96-well microtiter polystyrene plates (Kartell, Italy). The growth was assessed visually after incubation and the MIC was assumed as the lowest peptide concentration at which a noticeable growth of microorganisms was inhibited. Benzalkonium chloride (Sigma-Aldrich, Germany) was used as reference compound. All experiments were conducted in triplicate.

In data set [2] the test system is A. baumannii ATCC BAA 1605. The class given is cell-based, Acinetobacter baumannii. Conditions: ATCC BAA 1605, 18 h. On the procedure:
as §1, §2

Data set [3] relates to human red blood cells (RBCs). The class given is cell-based. Conditions: red cells of human. On the procedure:
The hemolysis assay was conducted using a procedure described previously. For this purpose, human red blood cells (RBCs) isolated from K2EDTA Single Donor Human Whole blood (Innovative Research, Inc, MI, USA) were rinsed with Phosphate-buffer saline (PBS, pH 7.4±0.05, composition - KCl 2.7 mM, NaCl 140 mM, phosphate 10mM; AppliChem GmbH, Germany) by centrifugation for 10 min at 800 × g. This process was repeated 3 times and the RBCs were resuspended in PBS. Then, the stock solution of RBCs was added to the serial dilution of lipopeptides on 96-well polystyrene plates to reach a final volume of 100 μL with a 4% concentration of erythrocytes (v/v) and a concentration range of 1-512 μg/mL of tested compounds. The control wells for 0% and 100% hemolysis consisted of RBCs suspended in PBS and 1% of Triton X-100 (Sigma-Aldrich, Germany), respectively. Benzalkonium chloride (Sigma-Aldrich, Germany) was used as reference compound. Subsequently, the plates were incubated for 60 min at 37 °C and then centrifuged at 800 × g for 10 min at 4 °C (Sorvall ST […] Centrifuge, Thermo Scientific). The supernatant was carefully […] to new microtiter plates. The release of hemoglobin was monitored absorbance measurements at 540 nm (MultiskanTM GO Microplate Spectrophotometer, Thermo Scientific). All experiments were conducted in triplicate. HC50 was calculated using an ic50.tk tool.

Data set [4] deals with S. aureus ATCC 33591. The class given is cell-based, Staphylococcus aureus. The note with it: ATCC 33591, 18 h. As for the experimental part: as §1, §2
Data set [5] deals with C. glabrata ATCC 15126. The class given is cell-based, Candida glabrata. Conditions: ATCC 15126, 24 h. On the procedure:
as §1, §2

In data set [6] the test system is K. pneumoniae ATCC 700603. The class given is cell-based, Klebsiella pneumoniae. The note with it: ATCC 700603, 18 h. On the procedure:
as §1, §2

In data set [7] the test system is E. faecium ATCC 700221. The class given is cell-based, Enterococcus faecium. The note with it: ATCC 700221, 18 h. On the procedure: as §1, §2
The subject of data set [8] is human keratinocyte cell line (HaCaT). The class given is cell-based. The note with it: 24 h. On the procedure:
The immortalized human keratinocyte cell line (HaCaT), obtained from CLS (Cell Line Service, Germany) was cultured in DMEM-high glucose (Dulbecco’s Modified Eagle Medium) supplemented with 10% fetal bovine serum, 2 mM L-glutamine, 100 U/mL penicillin and 100 μg/mL streptomycin (Sigma-Aldrich; Merck KGaA) at 37 °C in a humidified atmosphere with 5% CO2. Cells were trypsinized, and the medium was renewed 2–3 times per week. The cytotoxicity of compounds was assessed by colorimetric CellTilter 96® Aqueous One Solution Cell Proliferation Assay (Promega, USA), containing a tetrazolium compound according to the manufacturer’s instructions. In brief, 7 × 10^3 HaCaT cells per well were plated on 96-well plates and incubated per night to adhere to the cultured dishes. After that time, different concentrations of the tested compounds ranging from 512 to 1 μg/mL were applied to the wells. Every compound was medium-soluble at 37 °C; thus, the non-treated cells were negative control. Serial dilutions of the tested compounds were always prepared before use. Cells were incubated with drugs for 24 h, and then, 20 μL of the CellTiter 96®AqueousOne Solution Reagent was added to each well containing treated cells in 100 µl of culture medium. After 4 h of incubation at 37 °C, the absorbance at 490 nm was recorded using a microplate reader (Epoch, BioTek Instruments, USA). The quantity of formazan product as measured by the amount of 490 nm absorbance is directly proportional to the number of living cells in culture. Benzalkonium chloride (Sigma-Aldrich, Germany) was used as reference compound. At least three independent experiments with two replicates were conducted for each concentration of a compound, and the IC50 values were calculated using GraphPad Prism 8 software.

The test system of data set [9] is K. aerogenes ATCC 13048. The class given is cell-based, Klebsiella aerogenes. Conditions: ATCC 13048, 18 h. On the procedure:
as §1, §2

Molecules are shown by their SMILES. Values after ≈ are worked out from the molar mass of the structure shown.

With `CCCCCCCCCCCCCC(=O)N[C@@H](CCCC[N+](C)(C)C)C(N)=O` [Peptide 1Mq, C14-K(Me3)^+-NH2], the MIC in data set [1] is 128 µg/mL; in data set [2], 128 µg/mL; in [4] it was 32 µg/mL; in data set [5], 32 µg/mL; in [6] it was greater than 512 µg/mL; in [7], 32 µg/mL. Further, the MIC in [9] came out at 256 µg/mL. For the same compound, the HC50 in data set [3] is on record as 88.25 ± 1.57 µg/mL. The IC50 in data set [8] worked out at 24.81 ± 3.88 µg/mL.
`CCCCCCCCCCCCCCCC(=O)N[C@@H](CCCC[N+](C)(C)C)C(N)=O` [Peptide 1Pq, C16-K(Me3)^+-NH2]: the MIC is reported as greater than 512 µg/mL in data set [1]; 64 µg/mL in [2]; 16 µg/mL in [4]; 8 µg/mL in data set [5]; 512 µg/mL in data set [6]; 16 µg/mL in [7]. In data set [9], this compound had an MIC of 256 µg/mL. The compound also yielded an HC50 in [3] of 32.21 ± 1.97 µg/mL. Besides, the IC50 in data set [8] was determined as 19.25 ± 9.34 µg/mL.
In the case of `CCCCCCCCCCCCCC(=O)N[C@@H](CCCCN)C(=O)N[C@@H](CCCCN)C(N)=O` [Peptide 2M, C14-KK-NH2], the MIC in data set [1] is on record as 128 µg/mL (≈ 265 µM); in data set [2], 512 µg/mL (≈ 1060 µM); in data set [4] it was 16 µg/mL (≈ 33.1 µM); in data set [5], 256 µg/mL (≈ 529 µM); in data set [6] it was greater than 512 µg/mL; in data set [7], 32 µg/mL (≈ 66.2 µM). The compound also yielded an MIC in data set [9] of 512 µg/mL (≈ 1060 µM). The HC50 in data set [3] is reported as 345.21 ± 12.80 µg/mL. The compound further displayed an IC50 in data set [8] of 32.49 ± 4.84 µg/mL (≈ 67.2 µM).
On to `CCCCCCCCCCCCCC(=O)N[C@@H](CCCC[N+](C)(C)C)C(=O)N[C@@H](CCCC[N+](C)(C)C)C(N)=O` [Peptide 2Mq, C14-K(Me3)^+K(Me3)^+-NH2], for which the MIC in data set [1] is reported as greater than 512 µg/mL; in data set [2], greater than 512 µg/mL; in data set [4], 128 µg/mL; in [5], 512 µg/mL; in data set [6], greater than 512 µg/mL; in data set [7], 128 µg/mL. For the same compound, in data set [9], the MIC is recorded as greater than 512 µg/mL. The HC50 in [3] is reported as greater than 512 µg/mL. The 50% inhibitory concentration (IC50) in data set [8] amounted to 258.90 ± 35.07 µg/mL.
On to `CCCCCCCCCCCCCCCC(=O)N[C@@H](CCCC[N+](C)(C)C)C(=O)N[C@@H](CCCC[N+](C)(C)C)C(N)=O` [Peptide 2Pq, C16-K(Me3)^+K(Me3)^+-NH2], for which the MIC in [1] was 512 µg/mL; in data set [2], 128 µg/mL; in data set [4] it was 16 µg/mL; in data set [5], 64 µg/mL; in data set [6], 512 µg/mL; in data set [7], 16 µg/mL. This compound also showed an MIC in data set [9] of 512 µg/mL. The HC50 in [3] came out at 133.32 ± 6.27 µg/mL. Further, the IC50 in data set [8] amounted to 99.62 ± 9.65 µg/mL.
On to `CCCCCCCCCCCCCCCCCC(=O)N[C@@H](CCCC[N+](C)(C)C)C(=O)N[C@@H](CCCC[N+](C)(C)C)C(N)=O` [Peptide 2Sq, C18-K(Me3)^+K(Me3)^+-NH2], for which the MIC in data set [1] was greater than 512 µg/mL; in data set [2], 64 µg/mL; in data set [4], 8 µg/mL; in data set [5], 16 µg/mL; in data set [6], 128 µg/mL; in [7], 16 µg/mL. Further, in data set [9], the MIC is listed as 64 µg/mL. The compound also yielded an HC50 in data set [3] of 22.42 ± 0.98 µg/mL. In data set [8], the IC50 is given as 78.57 ± 5.49 µg/mL.
`CCCCCCCCCCCCCC(=O)N[C@@H](CCCCN)C(=O)N[C@@H](CCCCN)C(=O)N[C@@H](CCCCN)C(N)=O` [Peptide 3M, C14-KKK-NH2]: the MIC is given as 128 µg/mL (≈ 209 µM) in data set [1]; 512 µg/mL (≈ 837 µM) in [2]; 64 µg/mL (≈ 105 µM) in data set [4]; 512 µg/mL (≈ 837 µM) in data set [5]; greater than 512 µg/mL in data set [6]; 32 µg/mL (≈ 52.3 µM) in data set [7]. In addition, the MIC in data set [9] was determined as 256 µg/mL (≈ 418 µM). Also, in [3], the 50% haemolytic concentration (HC50) was greater than 512 µg/mL. The IC50 in [8] was 237.60 ± 31.18 µg/mL (≈ 388 µM).
Regarding `CCCCCCCCCCCCCC(=O)N[C@@H](CCCC[N+](C)(C)C)C(=O)N[C@@H](CCCC[N+](C)(C)C)C(=O)N[C@@H](CCCC[N+](C)(C)C)C(N)=O` [Peptide 3Mq, C14-K(Me3)^+K(Me3)^+K(Me3)^+-NH2], the MIC in [1] is greater than 512 µg/mL; in data set [2] it was greater than 512 µg/mL; in data set [4], greater than 512 µg/mL; in data set [5], greater than 512 µg/mL; in [6], greater than 512 µg/mL; in [7], 256 µg/mL. For the same compound, the MIC in [9] was greater than 512 µg/mL. In addition, in data set [3], the HC50 is listed as greater than 512 µg/mL. Moreover, in data set [8], the IC50 is on record as greater than 512 µg/mL.
Regarding `CCCCCCCCCCCCCCCC(=O)N[C@@H](CCCC[N+](C)(C)C)C(=O)N[C@@H](CCCC[N+](C)(C)C)C(=O)N[C@@H](CCCC[N+](C)(C)C)C(N)=O` [Peptide 3Pq, C16-K(Me3)^+K(Me3)^+K(Me3)^+-NH2], the MIC was greater than 512 µg/mL in data set [1]; greater than 512 µg/mL in data set [2]; 256 µg/mL in [4]; greater than 512 µg/mL in [5]; greater than 512 µg/mL in [6]; 32 µg/mL in [7]. This compound also registered an MIC in [9] of 512 µg/mL. In [3], this compound gave an HC50 greater than 512 µg/mL. This compound also had an IC50 in data set [8] greater than 512 µg/mL.
On to `CCCCCCCCCCCCCCCCCC(=O)N[C@@H](CCCC[N+](C)(C)C)C(=O)N[C@@H](CCCC[N+](C)(C)C)C(=O)N[C@@H](CCCC[N+](C)(C)C)C(N)=O` [Peptide 3Sq, C18-K(Me3)^+K(Me3)^+K(Me3)^+-NH2], for which the MIC in data set [1] is 512 µg/mL; in [2] it was 128 µg/mL; in data set [4] it was 64 µg/mL; in [5] it was 128 µg/mL; in data set [6], 256 µg/mL; in [7], 16 µg/mL. Further, in data set [9], the MIC is on record as 64 µg/mL. In [3], this compound yielded an HC50 of 385.50 ± 71.51 µg/mL. In data set [8], the IC50 was 474.64 ± 29.06 µg/mL.
